We go through one compound from ChEMBL document CHEMBL4477233, “Discovery of novel TAOK2 inhibitor scaffolds from high-throughput screening” (Bioorg Med Chem Lett, 2016).

For orientation: inhibition means the drop in the measured response relative to a control, in per cent. A lower inhibition goes with little suppression. A word on the IC50: it is the midpoint of a concentration-inhibition curve.

A value given as a limit tells only on which side of the number the result lay.

The target in assay [1] is Cyclin-dependent kinase 1 (Homo sapiens) (UniProt P06493). The assay can be described thus: Inhibition of human CDK1. The following applies: concentration not given here.
Assay [2] has as its target Glycogen synthase kinase-3 beta (Homo sapiens) (UniProt P49841). Briefly: Inhibition of human GSK3beta. As to conditions: concentration not given here.
In assay [3] the target is Mitogen-activated protein kinase kinase kinase kinase 4 (Homo sapiens) (UniProt O95819). Briefly: Inhibition of human HGK. The following applies: concentration not given here.
Assay [4] addresses T1, Interleukin-1 receptor-associated kinase 4 (Homo sapiens) (UniProt Q9NWZ3).
T1 sequence (whole entry): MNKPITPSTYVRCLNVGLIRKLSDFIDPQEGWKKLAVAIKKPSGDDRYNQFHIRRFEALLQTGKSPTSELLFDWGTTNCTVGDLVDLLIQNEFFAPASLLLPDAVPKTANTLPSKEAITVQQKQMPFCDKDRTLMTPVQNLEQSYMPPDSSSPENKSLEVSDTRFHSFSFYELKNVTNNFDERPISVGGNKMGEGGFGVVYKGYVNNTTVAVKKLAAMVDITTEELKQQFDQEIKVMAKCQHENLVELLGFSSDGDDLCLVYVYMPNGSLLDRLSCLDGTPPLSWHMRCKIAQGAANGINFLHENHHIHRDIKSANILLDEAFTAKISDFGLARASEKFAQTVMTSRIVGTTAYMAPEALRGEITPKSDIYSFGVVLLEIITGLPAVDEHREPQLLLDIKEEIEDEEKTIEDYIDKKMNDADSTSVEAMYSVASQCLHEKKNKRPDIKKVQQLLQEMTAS
The assay can be described thus: Inhibition of human IRAK4. As to conditions: concentration not given here.

In assay [5] the target is RAF proto-oncogene serine/threonine-protein kinase (Homo sapiens) (UniProt P04049). The assay can be described thus: Inhibition of human RAF-1. The following applies: concentration not given here.
Assay [6] concerns the target T2, Serine/threonine-protein kinase TAO2 (Rattus norvegicus, UniProt Q9JLS3).
T2 sequence (Q9JLS3 whole entry): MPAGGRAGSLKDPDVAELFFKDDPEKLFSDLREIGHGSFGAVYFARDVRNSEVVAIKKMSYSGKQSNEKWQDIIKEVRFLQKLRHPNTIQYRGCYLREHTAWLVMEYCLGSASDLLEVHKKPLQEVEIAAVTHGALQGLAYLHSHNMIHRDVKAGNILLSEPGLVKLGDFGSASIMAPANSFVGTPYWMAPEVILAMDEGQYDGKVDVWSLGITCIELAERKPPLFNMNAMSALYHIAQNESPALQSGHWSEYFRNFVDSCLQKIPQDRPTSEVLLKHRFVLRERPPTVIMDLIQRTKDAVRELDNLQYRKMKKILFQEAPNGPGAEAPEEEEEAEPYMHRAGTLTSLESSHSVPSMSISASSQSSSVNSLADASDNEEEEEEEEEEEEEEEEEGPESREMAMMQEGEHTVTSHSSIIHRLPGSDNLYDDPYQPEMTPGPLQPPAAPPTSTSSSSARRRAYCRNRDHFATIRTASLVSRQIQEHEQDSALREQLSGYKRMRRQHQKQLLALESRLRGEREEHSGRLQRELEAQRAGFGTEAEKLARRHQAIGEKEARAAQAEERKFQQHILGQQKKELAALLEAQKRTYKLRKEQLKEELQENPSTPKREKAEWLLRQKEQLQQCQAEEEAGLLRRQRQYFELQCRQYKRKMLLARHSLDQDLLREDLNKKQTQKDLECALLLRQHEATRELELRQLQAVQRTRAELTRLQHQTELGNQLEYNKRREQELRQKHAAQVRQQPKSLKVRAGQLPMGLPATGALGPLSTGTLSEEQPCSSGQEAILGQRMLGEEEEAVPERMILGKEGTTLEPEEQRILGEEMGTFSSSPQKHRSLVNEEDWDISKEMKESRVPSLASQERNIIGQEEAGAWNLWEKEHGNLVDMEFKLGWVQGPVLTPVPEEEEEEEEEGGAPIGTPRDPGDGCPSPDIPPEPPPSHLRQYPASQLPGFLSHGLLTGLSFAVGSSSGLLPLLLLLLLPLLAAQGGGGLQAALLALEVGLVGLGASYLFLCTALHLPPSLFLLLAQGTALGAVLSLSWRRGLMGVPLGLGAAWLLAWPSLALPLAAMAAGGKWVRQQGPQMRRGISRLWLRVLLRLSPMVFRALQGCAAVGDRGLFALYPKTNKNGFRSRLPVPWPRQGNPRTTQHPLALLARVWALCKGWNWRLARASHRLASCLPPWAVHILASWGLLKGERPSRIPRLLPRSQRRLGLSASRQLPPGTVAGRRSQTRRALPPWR
Briefly: Inhibition of rat TAOK2 (1 to 320 residues) expressed in Baculovirus/insect cell expression system using MBP as substrate measured after 10 mins in presence of [32P]ATP by radiometric assay.

Chain of RAF proto-oncogene serine/threonine-protein kinase (Homo sapiens) (P04049 whole entry): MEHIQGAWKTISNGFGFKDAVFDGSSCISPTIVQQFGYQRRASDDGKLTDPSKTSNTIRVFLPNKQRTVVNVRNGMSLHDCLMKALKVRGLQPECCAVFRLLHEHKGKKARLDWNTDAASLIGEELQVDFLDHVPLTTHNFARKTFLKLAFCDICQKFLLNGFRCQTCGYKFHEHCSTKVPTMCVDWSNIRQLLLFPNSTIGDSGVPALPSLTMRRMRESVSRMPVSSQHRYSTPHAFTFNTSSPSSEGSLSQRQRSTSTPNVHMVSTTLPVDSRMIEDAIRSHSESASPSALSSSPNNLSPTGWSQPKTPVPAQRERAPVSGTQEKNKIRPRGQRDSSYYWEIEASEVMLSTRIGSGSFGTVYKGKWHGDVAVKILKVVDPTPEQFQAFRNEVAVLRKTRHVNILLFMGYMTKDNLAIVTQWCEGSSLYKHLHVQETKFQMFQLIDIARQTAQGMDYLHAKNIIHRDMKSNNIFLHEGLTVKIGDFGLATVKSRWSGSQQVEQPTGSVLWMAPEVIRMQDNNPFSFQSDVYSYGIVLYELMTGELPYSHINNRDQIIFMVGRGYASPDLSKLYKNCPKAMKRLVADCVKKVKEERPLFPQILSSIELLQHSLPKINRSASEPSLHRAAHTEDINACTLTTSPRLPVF
Chain of Mitogen-activated protein kinase kinase kinase kinase 4 (Homo sapiens) (O95819 2-1239 limits assumed): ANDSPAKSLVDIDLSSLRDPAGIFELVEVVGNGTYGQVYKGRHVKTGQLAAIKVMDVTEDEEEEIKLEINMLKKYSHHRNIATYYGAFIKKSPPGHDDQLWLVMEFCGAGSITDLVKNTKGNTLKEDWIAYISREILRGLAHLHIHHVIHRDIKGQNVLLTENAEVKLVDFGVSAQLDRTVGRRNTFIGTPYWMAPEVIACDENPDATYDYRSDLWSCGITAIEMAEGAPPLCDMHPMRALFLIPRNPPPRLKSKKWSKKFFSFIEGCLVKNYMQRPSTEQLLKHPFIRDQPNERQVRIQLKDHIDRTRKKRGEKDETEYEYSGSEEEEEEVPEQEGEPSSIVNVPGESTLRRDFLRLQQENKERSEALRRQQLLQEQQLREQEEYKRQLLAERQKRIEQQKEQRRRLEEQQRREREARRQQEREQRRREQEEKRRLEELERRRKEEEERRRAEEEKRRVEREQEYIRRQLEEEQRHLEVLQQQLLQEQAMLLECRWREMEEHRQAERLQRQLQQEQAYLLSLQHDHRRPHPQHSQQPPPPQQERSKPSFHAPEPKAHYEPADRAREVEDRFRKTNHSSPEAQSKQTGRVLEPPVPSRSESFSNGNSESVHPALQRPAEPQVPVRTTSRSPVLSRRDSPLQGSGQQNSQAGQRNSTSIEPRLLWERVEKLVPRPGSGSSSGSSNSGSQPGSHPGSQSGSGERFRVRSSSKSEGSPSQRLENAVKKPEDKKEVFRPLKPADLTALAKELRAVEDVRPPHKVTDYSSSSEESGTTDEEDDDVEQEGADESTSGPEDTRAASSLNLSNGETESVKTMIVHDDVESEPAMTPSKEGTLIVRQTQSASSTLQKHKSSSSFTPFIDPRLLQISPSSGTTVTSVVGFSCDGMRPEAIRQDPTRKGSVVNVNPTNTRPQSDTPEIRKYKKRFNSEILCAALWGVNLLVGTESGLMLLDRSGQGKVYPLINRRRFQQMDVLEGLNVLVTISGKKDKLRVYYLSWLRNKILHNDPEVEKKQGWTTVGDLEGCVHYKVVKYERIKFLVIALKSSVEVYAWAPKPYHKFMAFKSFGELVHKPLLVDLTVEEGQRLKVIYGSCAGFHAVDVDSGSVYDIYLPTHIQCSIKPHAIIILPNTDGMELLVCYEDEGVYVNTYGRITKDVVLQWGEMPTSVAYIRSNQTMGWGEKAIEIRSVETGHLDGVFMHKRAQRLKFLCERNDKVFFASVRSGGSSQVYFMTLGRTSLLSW
Chain of Glycogen synthase kinase-3 beta (Homo sapiens) (P49841 whole entry, looked up): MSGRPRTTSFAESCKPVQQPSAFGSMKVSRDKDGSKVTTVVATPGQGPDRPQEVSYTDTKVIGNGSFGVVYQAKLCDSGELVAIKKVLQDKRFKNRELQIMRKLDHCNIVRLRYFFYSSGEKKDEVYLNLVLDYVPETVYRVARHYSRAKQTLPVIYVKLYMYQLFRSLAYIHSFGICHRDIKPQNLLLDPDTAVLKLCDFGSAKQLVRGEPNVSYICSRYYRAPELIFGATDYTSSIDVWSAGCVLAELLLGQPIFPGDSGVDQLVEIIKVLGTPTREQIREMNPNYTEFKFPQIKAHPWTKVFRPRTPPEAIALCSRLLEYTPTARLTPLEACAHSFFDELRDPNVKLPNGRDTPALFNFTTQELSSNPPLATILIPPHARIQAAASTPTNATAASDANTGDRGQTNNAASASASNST
Chain of Cyclin-dependent kinase 1 (Homo sapiens) (P06493 whole entry, looked up): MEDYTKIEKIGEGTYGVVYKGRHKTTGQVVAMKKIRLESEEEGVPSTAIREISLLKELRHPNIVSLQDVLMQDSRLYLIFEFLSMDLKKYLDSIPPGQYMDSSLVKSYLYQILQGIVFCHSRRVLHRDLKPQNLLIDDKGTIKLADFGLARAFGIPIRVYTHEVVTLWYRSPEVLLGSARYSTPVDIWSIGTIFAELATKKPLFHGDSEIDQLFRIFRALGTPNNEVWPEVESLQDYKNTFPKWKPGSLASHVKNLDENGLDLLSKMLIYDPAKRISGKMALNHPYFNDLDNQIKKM

In the case of `CCC(=O)Nc1nc(C)c(-c2csc(Nc3cc(OC)ccc3OC)n2)s1`, the inhibition in assay [1], in assay [2], in assay [3], in assay [4] and in assay [5] was over 50% each time. Moreover, the concentration for half-maximal inhibition (IC50) in assay [6] is 300 nM.
